Source: ChEMBL document CHEMBL5390242, “Design, Synthesis, and Antitumor Efficacy of Substituted 2-Amino[1,2,4]triazolopyrimidines and Related Heterocycles as Dual Inhibitors for Microtubule Polymerization and Janus Kinase 2” (J Med Chem, 2023)
Activity calls are given as the source filed them. The calls are words filed in the database; no cut-off is given here.

Experiments:
[1] = biological target: T1, JAK2-STAT3 (Homo sapiens) (UniProt O60674+P40763); assay: Inhibition of JAK2/STAT3 signalling pathway in human A549 cells assessed as effect on STAT3 protein level at 5 to 20 uM incubated for 24 hrs by Western blotting analysis; assay type: cell-based; conditions: dose 5-20 µM
A549 [2] = assay: Induction of apoptosis in human A549 cells at 5 uM incubated for 24 hrs by Annexin V-FITC/PI staining based flow cytometry; assay type: functional
[3] = Acute toxicity in C57BL/6 mouse assessed as maximum tolerated dose administered intravenously for 5 consecutive days; conditions: in vivo, route iv
A549 [4] = assay: Induction of apoptosis in human A549 cells assessed as early apoptotic cells at 20 nM incubated for 24 hrs by Annexin V-FITC/PI staining based flow cytometry (reference value: 4.61 %); assay type: functional
[5] = biological target: Tyrosine-protein kinase JAK2 (Homo sapiens, UniProt O60674); assay: Inhibition of JAK2 (unknown origin) using Poly-(Glu,Tyr 4:1) peptide as substrate in presence of ATP by ADP-Glo reagent based assay
A549 [6] = assay: Induction of apoptosis in human A549 cells assessed as early apoptotic cells at 10 nM incubated for 24 hrs by Annexin V-FITC/PI staining based flow cytometry (reference value: 4.61 %); assay type: functional
Tubulin (Homo sapiens) = Tubulin (Homo sapiens) (UniProt P68371+Q9H4B7+P0DPH7+P68366+Q13509+Q71U36+P04350+Q3ZCM7+P07437+P68363+Q9BQE3+Q6PEY2+Q13885+Q9BVA1+Q9BUF5); assay: Disruption of microtubule assembly in human A549 cells at 0.1 uM incubated for 6 hrs by Hoechst33342 staining based immunofluorescence analysis; assay type: cell-based
Tubulin = Tubulin (Sus scrofa, UniProt P02554+P02550); assay: Inhibition of porcine brain tubulin polymerization measured for 30 mins in presence of GTP by microplate reader assay; assay type: tissue-based
KP-4 = assay: Antiproliferative activity against human KP-4 cells assessed as cell growth inhibition incubated for 48 hrs by MTT assay; assay type: functional, cell-based; conditions: KP-4, 48 h
[7] = biological target: T1, JAK2-STAT3 (Homo sapiens); assay: Inhibition of JAK2/STAT3 signalling pathway in human A549 cells assessed as downregulation of STAT3 phosphorylation incubated for 24 hrs by Western blotting analysis; assay type: cell-based
A549 [8] = assay: Antitumor activity against human A549 cells xenografted in Balb/c mouse assessed as increase in tumor necrotic cells at 50 mg/kg,ip administration measured after 31 days by Hematoxylin-eosin staining based microscopy; assay type: functional, organism-based; conditions: time 31.0 day
A2780 = assay: Antiproliferative activity against human A2780 cells assessed as cell growth inhibition incubated for 48 hrs by MTT assay; assay type: functional, cell-based; conditions: A2780, 48 h
[9] = Antiproliferative activity against human HCT-8/VCR cells assessed as cell growth inhibition incubated for 48 hrs by MTT assay; assay type: functional, cell-based
[10] = Cmax in CD-1 mouse at 10 mg/kg,ip measured upto 24 hrs by HPLC-MS/MS analysis; assay type: ADME, organism-based; design: time < 24 hrs, dose 10 mg/kg, route ip; conditions: in vivo
Tubulin (Sus scrofa) = Tubulin (Sus scrofa) (UniProt P02554+P02550); assay: Inhibition of porcine brain tubulin polymerization at 0.625 to 2.5 uM measured for 30 mins in presence of GTP by microplate reader assay; assay type: tissue-based; conditions: dose 0.625-2.5 µM
[11] = Antiproliferative activity against human A549/DDP cells assessed as cell growth inhibition incubated for 48 hrs by MTT assay; assay type: functional, cell-based
A549 [12] = assay: Induction of cell cycle arrest in human A549 cells assessed as accumulation of cells at G2/M phase at 20 nM incubated for 24 hrs by PI/RNase staining based flow cytometry analysis; assay type: functional
BXPC-3 = assay: Antiproliferative activity against human BXPC-3 cells assessed as cell growth inhibition incubated for 48 hrs by MTT assay; assay type: functional, cell-based; conditions: BXPC-3, 48 h
[13] = Oral bioavailability in CD-1 mouse assessed as Oral bioavailability of metabolite at 10 mg/kg,ip measured upto 24 hrs by HPLC-MS/MS analysis; assay type: ADME, organism-based; conditions: in vivo
A549 [14] = assay: Induction of apoptosis in human A549 cells at 20 uM incubated for 24 hrs by Annexin V-FITC/PI staining based flow cytometry; assay type: functional
HT-29 = assay: Antiproliferative activity against human HT-29 cells assessed as cell growth inhibition incubated for 48 hrs by MTT assay; assay type: functional, cell-based; conditions: HT-29, 48 h
A549 [15] = assay: Antitumor activity against human A549 cells xenografted in Balb/c mouse assessed as tumor size at 50 mg/kg,ip administration measured after 31 days; assay type: functional; conditions: time 31 day
A549 [16] = assay: Induction of apoptosis in human A549 cells assessed as increase in intracellular ROS level at 5 to 20 nM incubated for 16 hrs by DCFH-DA staining based fluorescence microscopy; assay type: functional, cell-based; conditions: dose 5-20 nM
[17] = Cytotoxicity against human ARPE-19 cells assessed as cell growth inhibition incubated for 48 hrs by MTT assay; assay type: toxicity, cell-based
HepG2 = assay: Cytotoxicity against human HepG2 cells assessed as cell growth inhibition incubated for 48 hrs by MTT assay; assay type: functional, cell-based; conditions: HepG2, 48 h
A549 [18] = assay: Induction of apoptosis in human A549 cells assessed as necrotic cells at 5 nM incubated for 24 hrs by Annexin V-FITC/PI staining based flow cytometry (reference value: 0.67 %); assay type: functional
[19] = biological target: T1, JAK2-STAT3 (Homo sapiens); assay: Inhibition of JAK2/STAT3 signalling pathway in human A549 cells assessed as downregulation of JAK2 phosphorylation incubated for 24 hrs by Western blotting analysis; assay type: cell-based
[20] = Antiproliferative activity against Chinese hamster CHO cells assessed as cell growth inhibition incubated for 48 hrs by MTT assay; assay type: toxicity, cell-based, Cricetulus griseus
[21] = AUC (0 to infinity) in CD-1 mouse at 1 mg/kg,iv measured upto 24 hrs by HPLC-MS/MS analysis; assay type: ADME, organism-based; design: dose 1 mg/kg, time < 24 hrs, route iv; conditions: in vivo
[22] = Resistance index, ratio of IC50 for antiproliferative activity against human A2780T cells to IC50 for antiproliferative activity against human A2780 cells; assay type: functional
COLO 205 = assay: Cytotoxicity against human COLO 205 cells assessed as cell growth inhibition incubated for 48 hrs by MTT assay; assay type: functional, cell-based; conditions: COLO 205, 48 h
[23] = AUC (0 to t) in CD-1 mouse assessed as AUC (0 to t) of metabolite at 10 mg/kg,ip measured upto 24 hrs by HPLC-MS/MS analysis; assay type: ADME, organism-based; design: dose 10 mg/kg, time < 24 hrs, route ip; conditions: in vivo
A549 [24] = assay: Induction of apoptosis in human A549 cells assessed as viable cells at 20 nM incubated for 24 hrs by Annexin V-FITC/PI staining based flow cytometry (reference value: 93 %); assay type: functional; conditions: read-out: Activity
A549 [25] = assay: Induction of apoptosis in human A549 cells at 10 uM incubated for 24 hrs by Annexin V-FITC/PI staining based flow cytometry; assay type: functional
A549 [26] = assay: Induction of apoptosis in human A549 cells assessed as reduction of mitochondrial membrane potential incubated for 16 hrs by JC-1 staining based flow cytometry analysis; assay type: functional, cell-based
A549 [27] = assay: Induction of mitochondrial membrane potential loss in human A549 cells by measuring green fluorescence at 5 nM incubated for 16 hrs by JC-1 staining based flow cytometry analysis (reference value: 0.7 %); assay type: functional
[28] = MRT (0 to infinity) in CD-1 mouse assessed as MRT (0 to infinity) of metabolite at 10 mg/kg,ip measured upto 24 hrs by HPLC-MS/MS analysis; assay type: ADME, organism-based; conditions: in vivo

Chain of Tubulin (Sus scrofa) (P02550 whole entry, looked up): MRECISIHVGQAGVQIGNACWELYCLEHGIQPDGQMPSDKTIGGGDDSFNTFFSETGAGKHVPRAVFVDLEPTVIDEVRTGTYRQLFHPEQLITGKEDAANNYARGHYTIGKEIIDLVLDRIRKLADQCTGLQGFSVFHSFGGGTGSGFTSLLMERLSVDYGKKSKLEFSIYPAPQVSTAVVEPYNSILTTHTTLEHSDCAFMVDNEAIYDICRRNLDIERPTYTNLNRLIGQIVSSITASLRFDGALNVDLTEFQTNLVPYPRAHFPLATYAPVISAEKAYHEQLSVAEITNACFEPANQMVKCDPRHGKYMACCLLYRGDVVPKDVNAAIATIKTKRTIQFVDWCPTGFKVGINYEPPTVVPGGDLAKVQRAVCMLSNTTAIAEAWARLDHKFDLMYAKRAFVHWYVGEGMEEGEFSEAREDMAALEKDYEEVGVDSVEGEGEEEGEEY
Chain of Tubulin (Sus scrofa) (P02554 whole entry, looked up): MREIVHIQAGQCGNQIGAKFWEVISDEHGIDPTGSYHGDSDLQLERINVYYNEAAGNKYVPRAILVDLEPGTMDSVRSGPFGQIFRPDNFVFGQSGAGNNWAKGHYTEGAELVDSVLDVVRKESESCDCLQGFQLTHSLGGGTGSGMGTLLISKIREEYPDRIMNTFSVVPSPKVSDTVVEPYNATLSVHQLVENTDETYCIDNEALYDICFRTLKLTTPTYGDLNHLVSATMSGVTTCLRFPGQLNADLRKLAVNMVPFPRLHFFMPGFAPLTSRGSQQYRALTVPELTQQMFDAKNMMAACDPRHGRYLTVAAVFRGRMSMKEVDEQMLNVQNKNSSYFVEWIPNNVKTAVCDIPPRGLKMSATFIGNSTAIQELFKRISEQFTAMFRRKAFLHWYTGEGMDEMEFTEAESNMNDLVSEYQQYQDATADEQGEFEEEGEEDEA
Chain of Tyrosine-protein kinase JAK2 (O60674 whole entry): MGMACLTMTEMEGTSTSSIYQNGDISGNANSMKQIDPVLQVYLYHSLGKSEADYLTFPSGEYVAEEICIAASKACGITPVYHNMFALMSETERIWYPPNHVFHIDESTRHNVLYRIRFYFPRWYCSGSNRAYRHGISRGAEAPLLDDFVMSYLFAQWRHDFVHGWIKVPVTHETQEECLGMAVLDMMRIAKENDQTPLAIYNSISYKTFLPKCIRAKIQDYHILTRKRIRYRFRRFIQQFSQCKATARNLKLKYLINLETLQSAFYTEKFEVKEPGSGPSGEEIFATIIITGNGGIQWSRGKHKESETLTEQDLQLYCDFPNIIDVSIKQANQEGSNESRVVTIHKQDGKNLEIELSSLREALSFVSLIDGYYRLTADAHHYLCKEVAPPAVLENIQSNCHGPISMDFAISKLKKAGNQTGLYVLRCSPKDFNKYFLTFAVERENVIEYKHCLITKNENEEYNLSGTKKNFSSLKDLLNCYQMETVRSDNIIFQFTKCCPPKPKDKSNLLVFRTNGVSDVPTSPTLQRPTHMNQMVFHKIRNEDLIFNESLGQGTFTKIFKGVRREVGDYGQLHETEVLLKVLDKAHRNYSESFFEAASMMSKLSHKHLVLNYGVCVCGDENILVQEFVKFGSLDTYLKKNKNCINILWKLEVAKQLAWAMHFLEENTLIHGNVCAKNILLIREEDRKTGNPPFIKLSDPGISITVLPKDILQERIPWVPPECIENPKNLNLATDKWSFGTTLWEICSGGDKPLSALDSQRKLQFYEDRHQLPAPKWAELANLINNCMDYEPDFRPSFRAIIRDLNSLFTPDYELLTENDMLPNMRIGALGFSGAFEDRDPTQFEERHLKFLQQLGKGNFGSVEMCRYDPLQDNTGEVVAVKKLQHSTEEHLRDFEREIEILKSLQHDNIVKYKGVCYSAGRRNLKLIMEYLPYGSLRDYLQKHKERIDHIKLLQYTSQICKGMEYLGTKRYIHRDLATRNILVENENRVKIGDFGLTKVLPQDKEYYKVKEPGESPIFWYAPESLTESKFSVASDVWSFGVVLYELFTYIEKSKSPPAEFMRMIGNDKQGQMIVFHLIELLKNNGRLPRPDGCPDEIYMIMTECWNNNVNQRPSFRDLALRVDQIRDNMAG

For COc1cc(-c2nccc3nc(Nc4cccc5[nH]ccc45)nn23)cc(OC)c1OC, the inhibition [1] was “inactive”, the Activity (A549 [2]) was 8.9% and the MTD at 5 days [3] was 100 mg/kg. For the same molecule, the Activity (A549 [4]) was 34.6%, the IC50 [5] was 74 nM and the Activity (A549 [6]) was 27.3%. The Activity (Tubulin (Homo sapiens)) was “Active”, the IC50 (Tubulin) was 1300 nM and the IC50 (KP-4) was 13 nM. For the same molecule, the inhibition [7] was “Dose-Dependent Effect”, the Activity (A549 [8]) was “Active” and the IC50 (A2780) was 75 nM. The IC50 [9] was 49 nM, the Cmax [10] was 158 ng/mL and the inhibition (Tubulin (Sus scrofa)) was “Active”. The IC50 [11] was 36 nM, the Activity (A549 [12]) was 91.5% and the IC50 (BXPC-3) was 11 nM. The F [13] was 69.7%, the Activity (A549 [14]) was 80.7% and the IC50 (HT-29) was 27 nM. For the same molecule, the Activity (A549 [15]) was 315.8 mm3, the Activity (A549 [16]) was “Active” and the IC50 at 48 h [17] was 5030 nM. The IC50 (HepG2) was 51.8 nM, the Activity (A549 [18]) was 0.21% and the inhibition [19] was “Dose-Dependent Effect”. The IC50 at 48 h [20] was 24 nM, the AUC(0-inf) [21] was 390 ng·h/mL and the “Ratio IC50” value [22] was 0.3. The IC50 (COLO 205) was 12.1 nM, the AUCt [23] was 2534.7 ng·h/mL and the viability at 0.02 µM (A549 [24]) was 9.34%. For the same molecule, the Activity (A549 [25]) was 40.6%, the Activity (A549 [26]) was “Dose-Dependent Effect” and the Activity (A549 [27]) was 10.9%. The MRT [28] was 4 h.
